According to ChEMBL document CHEMBL3867482, “Design and synthesis of water soluble β-aminosulfone analogues of SCH 900229 as γ-secretase inhibitors” (Bioorg Med Chem Lett, 2016):
≈ marks a conversion by molar mass, not a printed value. Each block holds one compound with its values, some of them ahead of it.

Experiments:
Cytochrome P450 3A4 [1] = target: T1, Cytochrome P450 3A4 (Homo sapiens, UniProt P08684); assay: Inhibition of CYP3A4 in human liver microsomes preincubated for 30 mins after 30 secs by LC/MS/MS analysis; type: ADME
T1 sequence (P08684 whole entry): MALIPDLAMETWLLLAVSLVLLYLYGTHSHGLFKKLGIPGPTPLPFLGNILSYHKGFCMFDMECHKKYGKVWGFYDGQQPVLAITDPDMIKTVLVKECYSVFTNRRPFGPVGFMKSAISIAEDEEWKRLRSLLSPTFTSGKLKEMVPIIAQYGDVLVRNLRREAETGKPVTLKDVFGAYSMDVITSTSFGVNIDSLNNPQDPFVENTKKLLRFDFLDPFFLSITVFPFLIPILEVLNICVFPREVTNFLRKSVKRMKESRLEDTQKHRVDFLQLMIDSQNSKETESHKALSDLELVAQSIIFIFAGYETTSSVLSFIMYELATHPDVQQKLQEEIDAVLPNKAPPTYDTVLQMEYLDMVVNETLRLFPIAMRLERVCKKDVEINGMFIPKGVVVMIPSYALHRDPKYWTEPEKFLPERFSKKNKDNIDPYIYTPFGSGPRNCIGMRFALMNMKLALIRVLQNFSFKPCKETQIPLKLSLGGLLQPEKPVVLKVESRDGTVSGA

Cytochrome P450 2C9 = Cytochrome P450 2C9 (Homo sapiens, UniProt P11712); assay: Inhibition of CYP2C9 in human liver microsomes after 30 secs by LC/MS/MS analysis; type: ADME
Cytochrome P450 2C9, sequence (P11712 whole entry): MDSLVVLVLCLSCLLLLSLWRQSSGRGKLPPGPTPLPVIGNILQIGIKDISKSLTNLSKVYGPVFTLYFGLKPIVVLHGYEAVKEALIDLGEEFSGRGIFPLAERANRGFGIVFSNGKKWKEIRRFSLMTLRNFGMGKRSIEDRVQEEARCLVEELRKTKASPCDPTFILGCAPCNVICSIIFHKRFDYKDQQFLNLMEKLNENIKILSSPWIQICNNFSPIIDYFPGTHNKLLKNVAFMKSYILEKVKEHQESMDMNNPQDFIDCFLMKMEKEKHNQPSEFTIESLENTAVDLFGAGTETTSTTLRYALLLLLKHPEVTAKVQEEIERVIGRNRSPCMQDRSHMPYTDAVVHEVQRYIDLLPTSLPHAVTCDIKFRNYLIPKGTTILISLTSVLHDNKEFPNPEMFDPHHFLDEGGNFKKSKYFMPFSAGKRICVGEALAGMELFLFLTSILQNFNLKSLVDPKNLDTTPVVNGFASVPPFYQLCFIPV

[2] = Kinetic solubility of compound; type: physicochemical; conditions: read-out: Kinetic_solubility
[3] = Clearance in rat hepatocytes assessed per million cells by HPLC/atmospheric pressure chemical ionization/MS analysis; type: ADME, cell-based, Hepatocyte; conditions: read-out: CLH
Cytochrome P450 2D6 = Cytochrome P450 2D6 (Homo sapiens, UniProt P10635); assay: Inhibition of CYP2D6 in human liver microsomes after 30 secs by LC/MS/MS analysis; type: ADME
Cytochrome P450 2D6, sequence (P10635 whole entry): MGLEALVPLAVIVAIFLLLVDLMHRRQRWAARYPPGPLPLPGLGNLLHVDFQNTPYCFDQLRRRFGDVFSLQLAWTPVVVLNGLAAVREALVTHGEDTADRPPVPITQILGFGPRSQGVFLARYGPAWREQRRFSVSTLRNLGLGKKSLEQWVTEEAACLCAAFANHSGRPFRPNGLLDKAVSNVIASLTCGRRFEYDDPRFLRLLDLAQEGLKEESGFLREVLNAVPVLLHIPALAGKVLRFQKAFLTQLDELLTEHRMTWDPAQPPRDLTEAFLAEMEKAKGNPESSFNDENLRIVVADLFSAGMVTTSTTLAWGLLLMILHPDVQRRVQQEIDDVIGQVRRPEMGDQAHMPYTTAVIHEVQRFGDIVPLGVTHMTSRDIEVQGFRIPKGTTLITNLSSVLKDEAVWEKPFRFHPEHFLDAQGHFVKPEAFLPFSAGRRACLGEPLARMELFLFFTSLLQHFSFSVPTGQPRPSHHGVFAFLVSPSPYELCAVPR

[4] = Clearance in monkey hepatocytes assessed per million cells by HPLC/atmospheric pressure chemical ionization/MS analysis; type: ADME, cell-based, Macaca mulatta, Hepatocyte; conditions: rhesus monkey, read-out: CLH
Mus musculus [5] = assay: Antialzheimer activity in B6C3F1 mouse assessed as amyloid beta 40 level in plasma at 10 mg/kg, po administered as single dose after 3 hrs relative to control; type: functional
Cytochrome P450 3A4 [6] = target: T1, Cytochrome P450 3A4; assay: Inhibition of CYP3A4 in human liver microsomes after 30 secs by LC/MS/MS analysis; type: ADME
[7] = AUC (0 to 6 hrs) in mouse at 10 mg/kg, po by LC/MS/MS analysis; type: ADME, organism-based; set-up: time < 6 hr, dose 10 mg/kg, route oral; conditions: in vivo; for AUC: 6 h, BLD = below limit of detection
[8] = Clearance in dog hepatocytes assessed per million cells by HPLC/atmospheric pressure chemical ionization/MS analysis; type: ADME, cell-based, Canis lupus familiaris, Hepatocyte; conditions: read-out: CLH
[9] = Selectivity ratio of IC50 for human gamma secretase PS2 (1 to 467 residues) expressed in baculovirus infected sf9 cells co-expressing aph-1a to IC50 for gamma secretase PS1 (1 to 448 residues) expressed in baculovirus infected sf9 cells co-expressing aph-1a
[10] = Clearance in human hepatocytes assessed per million cells by HPLC/atmospheric pressure chemical ionization/MS analysis; type: ADME, cell-based, Hepatocyte; conditions: read-out: CLH
[11] = Inhibition of gamma-secretase in HEK293 cell membranes expressing human APP Swedish/London double mutant assessed as reduction in amyloid beta 40 formation after 1 hr by electrochemiluminescence based immunoassay
Mus musculus [12] = assay: Antialzheimer activity in B6C3F1 mouse assessed as amyloid beta 40 level in cortex at 10 mg/kg, po administered as single dose after 3 hrs relative to control; type: functional
[13] = Ratio of drug level in brain to plasma in mouse at 6 hrs; type: ADME, organism-based; conditions: brain and plasma, read-out: BPR

- IC50 (Cytochrome P450 3A4 [1]): 1000 nM
- IC50 (Cytochrome P450 2C9): > 20000 nM
- hepatocyte CLint [3]: 18.9 µL/min/1e6 cells
- IC50 (Cytochrome P450 2D6): > 20000 nM
- hepatocyte CLint [4]: 60.5 µL/min/1e6 cells
- IC50 (Cytochrome P450 3A4 [6]): 2000 nM
- AUC(0-t) at 6 h [7]: 1.02 µM·h
- hepatocyte CLint [8]: 21.1 µL/min/1e6 cells
- hepatocyte CLint [10]: 34.2 µL/min/1e6 cells
- Kp at 6 h [13]: 0.3
- IC50 [11]: 1.4 nM
SMILES: O=S(=O)(CC[C@@H]1OCC[C@@]2(S(=O)(=O)c3ccc(Cl)cc3)c3c(F)ccc(F)c3OC[C@@H]12)[C@H]1CCNC1 [listing 1 of 2 here]
- Activity (Mus musculus [12]): -56%
- Activity (Mus musculus [5]): -82%

- IC50 (Cytochrome P450 3A4 [1]): 1000 nM
- IC50 (Cytochrome P450 2C9): > 20000 nM
- hepatocyte CLint [3]: 12.8 µL/min/1e6 cells
- IC50 (Cytochrome P450 2D6): > 20000 nM
- hepatocyte CLint [4]: 28 µL/min/1e6 cells
- IC50 (Cytochrome P450 3A4 [6]): > 20000 nM
- AUC(0-t) at 6 h [7]: 2.52 µM·h
- hepatocyte CLint [8]: 13.6 µL/min/1e6 cells
- Kp at 6 h [13]: 0.4
- IC50 [11]: 1 nM
SMILES: O=S(=O)(CC[C@@H]1OCC[C@@]2(S(=O)(=O)c3ccc(Cl)cc3)c3c(F)ccc(F)c3OC[C@@H]12)C[C@H]1CCCN1 [listing 1 of 2 here]
- Activity (Mus musculus [12]): -42%
- Activity (Mus musculus [5]): -71%

- solubility kinetic [2]: ≥ 200 µM
SMILES: Cl.O=S(=O)(CC[C@@H]1OCC[C@@]2(S(=O)(=O)c3ccc(Cl)cc3)c3c(F)ccc(F)c3OC[C@@H]12)C[C@@H]1CCCN1

- IC50 [11]: 1.3 nM
SMILES: O=S(=O)(CC[C@@H]1OCC[C@@]2(S(=O)(=O)c3ccc(Cl)cc3)c3c(F)ccc(F)c3OC[C@@H]12)C1CNC1
- Activity (Mus musculus [5]): -15%

- IC50 [11]: 1.3 nM
SMILES: CS(=O)(=O)CC[C@@H]1OCC[C@@]2(S(=O)(=O)c3ccc(Cl)cc3)c3c(F)ccc(F)c3OC[C@@H]12
- Activity (Mus musculus [12]): -78%
- Activity (Mus musculus [5]): -89%
- Ratio IC50 [9]: 25

- IC50 (Cytochrome P450 3A4 [1]): 2800 nM
- IC50 (Cytochrome P450 2C9): > 20000 nM
- hepatocyte CLint [3]: 12.1 µL/min/1e6 cells
- IC50 (Cytochrome P450 2D6): > 20000 nM
- hepatocyte CLint [4]: 20.3 µL/min/1e6 cells
- IC50 (Cytochrome P450 3A4 [6]): 15100 nM
- AUC(0-t) at 6 h [7]: 0.582 µM·h
- hepatocyte CLint [8]: 6.4 µL/min/1e6 cells
- hepatocyte CLint [10]: 8.5 µL/min/1e6 cells
- IC50 [11]: 0.8 nM
SMILES: NCCS(=O)(=O)CC[C@@H]1OCC[C@@]2(S(=O)(=O)c3ccc(Cl)cc3)c3c(F)ccc(F)c3OC[C@@H]12 [listing 1 of 2 here]
- Activity (Mus musculus [12]): -52%
- Activity (Mus musculus [5]): -54%

- solubility kinetic [2]: ≥ 200 µM
SMILES: Cl.O=S(=O)(CC[C@@H]1OCC[C@@]2(S(=O)(=O)c3ccc(Cl)cc3)c3c(F)ccc(F)c3OC[C@@H]12)[C@H]1CCNC1

- solubility kinetic [2]: > 200 µM
SMILES: Cl.O=S(=O)(CC[C@@H]1OCC[C@@]2(S(=O)(=O)c3ccc(Cl)cc3)c3c(F)ccc(F)c3OC[C@@H]12)C1CNC1

Continued, compound first:

SMILES: O=S(=O)(CC[C@@H]1OCC[C@@]2(S(=O)(=O)c3ccc(Cl)cc3)c3c(F)ccc(F)c3OC[C@@H]12)CCN1CCNCC1
- IC50 (Cytochrome P450 3A4 [1]): > 20000 nM
- IC50 (Cytochrome P450 2C9): > 20000 nM
- solubility kinetic [2]: 200 µM (≈ 121 µg/mL)
- hepatocyte CLint [3]: 6.1 µL/min/1e6 cells
- IC50 (Cytochrome P450 2D6): > 20000 nM
- hepatocyte CLint [4]: 12.7 µL/min/1e6 cells
- Activity (Mus musculus [5]): -95%
- IC50 (Cytochrome P450 3A4 [6]): > 20000 nM
- AUC [7]: Bld
- hepatocyte CLint [8]: 7.7 µL/min/1e6 cells
- Ratio IC50 [9]: 10
- hepatocyte CLint [10]: 5.3 µL/min/1e6 cells
- IC50 [11]: 0.8 nM

SMILES: CCNCCS(=O)(=O)CC[C@@H]1OCC[C@@]2(S(=O)(=O)c3ccc(Cl)cc3)c3c(F)ccc(F)c3OC[C@@H]12
- Ratio IC50 [9]: 18

SMILES: O=S(=O)(CC[C@@H]1OCC[C@@]2(S(=O)(=O)c3ccc(Cl)cc3)c3c(F)ccc(F)c3OC[C@@H]12)[C@H]1CCNC1 [listing 2 of 2 here]
- Ratio IC50 [9]: 30

SMILES: O=S(=O)(CC[C@@H]1OCC[C@@]2(S(=O)(=O)c3ccc(Cl)cc3)c3c(F)ccc(F)c3OC[C@@H]12)CCN1CC[C@@H](O)C1
- Ratio IC50 [9]: 12
- IC50 [11]: 0.6 nM

SMILES: CN(C)CCS(=O)(=O)CC[C@@H]1OCC[C@@]2(S(=O)(=O)c3ccc(Cl)cc3)c3c(F)ccc(F)c3OC[C@@H]12
- IC50 (Cytochrome P450 3A4 [1]): 9000 nM
- Activity (Mus musculus [12]): -45%
- IC50 (Cytochrome P450 2C9): > 20000 nM
- solubility kinetic [2]: 50 µM (≈ 28.2 µg/mL)
- hepatocyte CLint [3]: 66.7 µL/min/1e6 cells
- IC50 (Cytochrome P450 2D6): > 20000 nM
- hepatocyte CLint [4]: 65 µL/min/1e6 cells
- Activity (Mus musculus [5]): -21%
- IC50 (Cytochrome P450 3A4 [6]): > 20000 nM
- AUC [7]: Bld
- hepatocyte CLint [8]: 56.5 µL/min/1e6 cells
- Ratio IC50 [9]: 20
- hepatocyte CLint [10]: 57.2 µL/min/1e6 cells
- IC50 [11]: 1.7 nM

SMILES: CNCCS(=O)(=O)CC[C@@H]1OCC[C@@]2(S(=O)(=O)c3ccc(Cl)cc3)c3c(F)ccc(F)c3OC[C@@H]12.Cl
- solubility kinetic [2]: ≥ 200 µM

SMILES: NCCS(=O)(=O)CC[C@@H]1OCC[C@@]2(S(=O)(=O)c3ccc(Cl)cc3)c3c(F)ccc(F)c3OC[C@@H]12 [listing 2 of 2 here]
- Ratio IC50 [9]: 35

SMILES: O=S(=O)(CC[C@@H]1OCC[C@@]2(S(=O)(=O)c3ccc(Cl)cc3)c3c(F)ccc(F)c3OC[C@@H]12)C[C@@H]1CCCN1
- Ratio IC50 [9]: 14

SMILES: O=S(=O)(CC[C@@H]1OCC[C@@]2(S(=O)(=O)c3ccc(Cl)cc3)c3c(F)ccc(F)c3OC[C@@H]12)C[C@H]1CCCN1 [listing 2 of 2 here]
- Ratio IC50 [9]: 23

SMILES: O=S(=O)(CCNC1CCC1)CC[C@@H]1OCC[C@@]2(S(=O)(=O)c3ccc(Cl)cc3)c3c(F)ccc(F)c3OC[C@@H]12
- IC50 [11]: 2 nM
